Measured values: ChEMBL document CHEMBL5505975, “Design, synthesis and biological evaluation of CDC20 inhibitors for treatment of triple-negative breast cancer” (Eur J Med Chem, 2024)

Experiments:
MDA-MB-231 [1] = assay: Induction of apoptosis in human MDA-MB-231 cells assessed as late apoptotic cells at 100 uM incubated for 48 hrs by Annexin V-FITC/PI staining based flow cytometric analysis (reference value: 1.06%); assay type: functional
[2] = molecular target: Cell division cycle protein 20 homolog (Homo sapiens, UniProt Q12834); assay: Binding affinity human CDC20 assessed as dissociation constant by SPR analysis
Cell division cycle protein 20 homolog, sequence (Q12834 whole entry): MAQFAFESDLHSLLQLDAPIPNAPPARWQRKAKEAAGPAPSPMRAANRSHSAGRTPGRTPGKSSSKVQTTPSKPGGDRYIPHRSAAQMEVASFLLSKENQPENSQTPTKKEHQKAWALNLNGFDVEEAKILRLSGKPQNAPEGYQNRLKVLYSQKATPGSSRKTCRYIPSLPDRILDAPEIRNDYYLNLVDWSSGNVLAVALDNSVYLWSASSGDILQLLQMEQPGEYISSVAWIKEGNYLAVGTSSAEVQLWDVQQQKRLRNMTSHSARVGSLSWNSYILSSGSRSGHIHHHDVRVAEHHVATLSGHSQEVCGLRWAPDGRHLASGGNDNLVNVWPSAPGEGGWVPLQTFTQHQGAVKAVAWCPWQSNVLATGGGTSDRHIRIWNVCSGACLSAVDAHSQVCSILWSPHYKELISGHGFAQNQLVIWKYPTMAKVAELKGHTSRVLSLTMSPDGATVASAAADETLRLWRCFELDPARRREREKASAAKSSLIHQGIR

MDA-MB-231 [3] = assay: Antiproliferative activity against human MDA-MB-231 cells assessed as reduction in cell viability incubated for 96 hrs by MTT assay; details: MDA-MB-231, 96 h
MDA-MB-231 [4] = assay: Induction of apoptosis in human MDA-MB-231 cells assessed as early apoptotic cells at 100 uM incubated for 48 hrs by Annexin V-FITC/PI staining based flow cytometric analysis (reference value: 2.25 %); assay type: functional
[5] = Cytotoxicity against human L02 cells assessed as reduction in cell viability incubated for 96 hrs by MTT assay; assay type: toxicity, cell-based
MDA-MB-231 [6] = assay: Cell cycle arrest in human MDA-MB-231 cells assessed as S phase cells at 100 uM incubated for 48 hrs by PI staining based flow cytometric analysis (reference value: 16.0%); assay type: functional
MDA-MB-231 [7] = assay: Cell cycle arrest in human MDA-MB-231 cells assessed as G1 phase cells at 100 uM incubated for 48 hrs by PI staining based flow cytometric analysis (reference value: 51.5%); assay type: functional
A549 = assay: Antiproliferative activity against human A549 cells assessed as reduction in cell viability incubated for 96 hrs by MTT assay; details: A549, 96 h
MDA-MB-231 [8] = assay: Cell cycle arrest in human MDA-MB-231 cells assessed as G2 phase cells at 100 uM incubated for 48 hrs by PI staining based flow cytometric analysis (reference value: 18.6%); assay type: functional
MCF7 = assay: Antiproliferative activity against human MCF7 cells assessed as reduction in cell viability incubated for 96 hrs by MTT assay; details: MCF7, 96 h
MDA-MB-231 [9] = assay: Cell cycle arrest in human MDA-MB-231 cells assessed as S phase cells at 100 uM incubated for 72 hrs by PI staining based flow cytometric analysis (reference value: 29.9%); assay type: functional
MDA-MB-231 [10] = assay: Cell cycle arrest in human MDA-MB-231 cells assessed as G2 phase cells at 100 uM incubated for 72 hrs by PI staining based flow cytometric analysis (reference value: 18.6%); assay type: functional
MDA-MB-231 [11] = assay: Cell cycle arrest in human MDA-MB-231 cells assessed as S phase cells at 100 uM incubated for 24 hrs by PI staining based flow cytometric analysis (reference value: 29.9%); assay type: functional
MDA-MB-231 [12] = assay: Cell cycle arrest in human MDA-MB-231 cells assessed as G2 phase cells at 100 uM incubated for 24 hrs by PI staining based flow cytometric analysis (reference value: 18.6%); assay type: functional
MDA-MB-231 [13] = assay: Cell cycle arrest in human MDA-MB-231 cells assessed as G1 phase cells at 100 uM incubated for 24 hrs by PI staining based flow cytometric analysis (reference value: 51.5%); assay type: functional
MDA-MB-231 [14] = assay: Induction of apoptosis in human MDA-MB-231 cells assessed as necrotic cells at 100 uM incubated for 48 hrs by Annexin V-FITC/PI staining based flow cytometric analysis (reference value: 1.63%); assay type: functional
MDA-MB-231 [15] = assay: Induction of apoptosis in human MDA-MB-231 cells assessed as viable cells at 100 uM incubated for 48 hrs by Annexin V-FITC/PI staining based flow cytometric analysis (reference value: 95.10%); assay type: functional; details: read-out: Activity
MDA-MB-231 [16] = assay: Cell cycle arrest in human MDA-MB-231 cells assessed as G1 phase cells at 100 uM incubated for 48 hrs by PI staining based flow cytometric analysis (reference value: 76.7%); assay type: functional
MDA-MB-231 [17] = assay: Cell cycle arrest in human MDA-MB-231 cells assessed as G1 phase cells at 100 uM incubated for 72 hrs by PI staining based flow cytometric analysis (reference value: 51.5%); assay type: functional
MDA-MB-468 = assay: Antiproliferative activity against human MDA-MB-468 cells assessed as reduction in cell viability incubated for 96 hrs by MTT assay; details: MDA-MB-468, 96 h
MDA-MB-231 [18] = assay: Cell cycle arrest in human MDA-MB-231 cells assessed as G2 phase cells at 100 uM incubated for 48 hrs by PI staining based flow cytometric analysis (reference value: 7.3%); assay type: functional
MDA-MB-231 [19] = assay: Cell cycle arrest in human MDA-MB-231 cells assessed as S phase cells at 100 uM incubated for 48 hrs by PI staining based flow cytometric analysis (reference value: 29.9%); assay type: functional

- Kd [2]: 172 µM
- IC50 (MDA-MB-231 [3]): 139 µM
- IC50 (A549): 114 µM
- IC50 (MCF7): 109 µM
- IC50 (MDA-MB-468): 83.4 µM
SMILES: Cc1ncc([N+](=O)[O-])n1CCOC(=O)NC(Nc1ncccn1)C(Cl)(Cl)Cl (configuration not stated)
- Activity (MDA-MB-231 [1]): 3.12%
- Activity (MDA-MB-231 [4]): 3.22%
- IC50 at 96 h [5]: > 200 µM
- Activity (MDA-MB-231 [6]): 38%
- Activity (MDA-MB-231 [7]): 48.8%
- Activity (MDA-MB-231 [8]): 27.7%
- Activity (MDA-MB-231 [9]): 24.6%
- Activity (MDA-MB-231 [10]): 36.2%
- Activity (MDA-MB-231 [11]): 45.1%
- Activity (MDA-MB-231 [12]): 26.1%
- Activity (MDA-MB-231 [13]): 28.8%
- Activity (MDA-MB-231 [14]): 2.43%
- viability at 100 µM (MDA-MB-231 [15]): 91.2%
- Activity (MDA-MB-231 [16]): 50.3%
- Activity (MDA-MB-231 [17]): 39.2%
- Activity (MDA-MB-231 [18]): 11.7%
- Activity (MDA-MB-231 [19]): 23.5%
